ChEMBL document CHEMBL1201862, “PubChem BioAssay data set” (2004)
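Where inhibition never reached the appropriate level, the endpoint shown equals the highest concentration tested. Otherwise, values were interpolated linearly from a five-concentration, 48-hour dose response in 96-well plates. The concentration for 50% growth inhibition is given as GI50.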 Active and inactive are the calls of the source. No stated cut-off is given here; in the data, active = GI50 up to about 1.1 µM and inactive = higher.

Assays:
Assay in all cases: NCI-60 cell line screen, 48 h
[1] = test system: Malme-3M
[2] = test system: A549
[3] = test system: OVCAR-8
[4] = test system: SN12C
[5] = test system: K562
[6] = test system: COLO 205
[7] = test system: HT-29
[8] = test system: KM-20L2
[9] = test system: UACC-62
[10] = test system: SNB-19
[11] = test system: UACC-257
[12] = test system: HCC 2998
[13] = test system: SF-539
[14] = test system: KM12
[15] = test system: TK-10
[16] = test system: M14
[17] = test system: DLD-1
[18] = test system: HL-60

Measured: GI50

CC1Nc2ccccc2NC1C=C(C#N)C#N (stereo not drawn)
inactive: [1] 16.7 µM | [2] 22.8 µM | [3] 7.76 µM | [4] 15.6 µM | [5] 8.32 µM | [6] 18.7 µM | [7] 16.7 µM | [8] 16.3 µM | [9] 16.1 µM | [10] 17.9 µM | [11] > 10 µM | [12] 18.4 µM | [13] 13.2 µM | [14] 16.5 µM | [15] 19.6 µM | [16] 11.9 µM | [17] 14.4 µM | [18] 1.85 µM

C[C@]12CCCC(=O)C1(O)C[C@H](C(=O)O)CC2 (stereo partly drawn)
inactive: [1] > 100 µM | [2] > 100 µM | [3] > 100 µM | [4] > 100 µM | [5] > 100 µM | [6] > 100 µM | [7] > 100 µM | [8] > 100 µM | [9] > 100 µM | [10] > 100 µM | [11] > 100 µM | [12] > 100 µM | [13] > 100 µM | [14] > 100 µM | [15] > 100 µM | [16] > 100 µM | [17] > 100 µM | [18] > 100 µM

OC1(c2ccccc2)OC(C#Cc2ccccc2)(c2ccccc2)c2ccccc21 (stereo not drawn)
inactive: [1] 10.6 µM | [2] 3.86 µM | [3] 2.45 µM | [4] 3.25 µM | [5] 3.55 µM | [6] 2.31 µM | [7] 2.02 µM | [8] 3.33 µM | [9] 1.94 µM | [10] 13.2 µM | [11] 8.32 µM | [13] 1.97 µM | [14] 1.59 µM | [15] 13.3 µM | [16] 2.21 µM | [17] 3.06 µM | [18] 2.58 µM

CCCCCCCCCc1cc(=O)c2ccc(OCc3ccccc3)cc2o1
inactive: [1] 25.8 µM | [2] 70.8 µM | [3] > 100 µM | [4] > 100 µM | [5] > 100 µM | [6] > 100 µM | [7] > 100 µM | [8] > 100 µM | [9] > 100 µM | [10] > 100 µM | [11] > 100 µM | [12] > 100 µM | [13] 90.8 µM | [14] > 100 µM | [15] 65.5 µM | [16] > 100 µM | [17] > 100 µM | [18] 14.5 µM

COc1cccc2c1C(=O)c1c(O)c3c(c(O)c1C2=O)C[C@@](O)(C(=O)CO)CC3OC1CC(N(C)CCOCC(OC(C)=O)OC(C)=O)C(O)C(C)O1 (stereo partly drawn)
active: [1] > 0.01 µM | [2] > 0.01 µM | [3] > 0.01 µM | [4] > 0.01 µM | [5] > 0.01 µM | [7] > 0.01 µM | [8] > 0.01 µM | [9] > 0.01 µM | [10] > 0.01 µM | [11] > 0.01 µM | [12] > 0.01 µM | [13] > 0.01 µM | [14] > 0.01 µM | [15] > 0.01 µM | [16] > 0.01 µM | [17] > 0.01 µM | [18] > 0.01 µM

CC(C)(C)c1cc(CCC(=O)Nc2ccc(Cl)cc2Cl)nc(N)n1
inactive: [1] > 100 µM | [2] > 100 µM | [3] > 100 µM | [4] > 100 µM | [5] > 100 µM | [6] > 100 µM | [7] > 100 µM | [8] > 100 µM | [9] > 100 µM | [10] > 100 µM | [11] > 100 µM | [12] > 100 µM | [13] > 100 µM | [14] > 100 µM | [16] > 100 µM | [17] > 100 µM | [18] > 100 µM

CC(=O)NNc1nc(C)c(C(=O)/C=C/c2ccccc2Cl)s1
inactive: [1] > 100 µM | [2] > 100 µM | [3] > 100 µM | [4] > 100 µM | [5] > 100 µM | [6] > 100 µM | [7] > 100 µM | [8] > 100 µM | [9] > 100 µM | [10] > 100 µM | [11] > 100 µM | [12] > 100 µM | [13] > 100 µM | [14] > 100 µM | [15] > 100 µM | [17] > 100 µM | [18] > 100 µM

COc1cc(C2c3cc4c(cc3[C@@H](N(C)C)[C@H]3COC(=O)C23)OCO4)cc(OC)c1O (stereo partly drawn)
inactive: [1] 37.7 µM | [2] 45.9 µM | [3] 25.5 µM | [4] 51.4 µM | [5] 27.3 µM | [6] 39.4 µM | [7] 34.4 µM | [8] 23.4 µM | [9] 33.7 µM | [11] 67.9 µM | [12] 53.6 µM | [13] 21 µM | [14] 38.2 µM | [15] > 100 µM | [16] 31 µM | [17] 41.9 µM | [18] 33.4 µM

CC1CCC23COC(=O)C2C(O)CCC3C1(C)CC(O)c1ccoc1 (stereo not drawn)
inactive: [1] > 100 µM | [2] > 100 µM | [3] > 100 µM | [4] > 100 µM | [5] > 100 µM | [6] > 100 µM | [7] > 100 µM | [8] > 100 µM | [9] > 100 µM | [10] > 100 µM | [11] > 100 µM | [12] > 100 µM | [13] > 100 µM | [14] > 100 µM | [15] > 100 µM | [16] > 100 µM | [17] > 100 µM

O=C(O)C1=C(C(=O)Nc2ccccc2)C2C=CC1C2 (stereo not drawn)
inactive: [1] > 100 µM | [2] > 100 µM | [3] > 100 µM | [4] > 100 µM | [5] > 100 µM | [6] > 100 µM | [7] > 100 µM | [8] > 100 µM | [9] > 100 µM | [10] > 100 µM | [11] > 100 µM | [12] > 100 µM | [13] > 100 µM | [14] > 100 µM | [15] > 100 µM | [16] > 100 µM | [17] > 100 µM | [18] > 100 µM

O=C(CC(=O)c1ccccc1)C(=O)Nc1ccc(Cl)cc1
inactive: [1] > 100 µM | [2] > 94.6 µM | [3] > 100 µM | [4] > 100 µM | [5] > 85.5 µM | [6] > 46.2 µM | [7] > 42.8 µM | [8] > 100 µM | [9] > 100 µM | [10] > 100 µM | [11] > 61.5 µM | [12] > 64.3 µM | [13] > 100 µM | [14] > 100 µM | [15] > 100 µM | [16] > 100 µM | [17] > 58.9 µM | [18] > 100 µM

Nc1nc(N)c(N=O)c(Nc2ccc(I)cc2)n1
inactive: [1] 19.2 µM | [2] 65.8 µM | [3] 29.4 µM | [4] 10.6 µM | [5] 14.1 µM | [6] 18.6 µM | [8] 23.2 µM | [9] 7.78 µM | [10] 30.1 µM | [11] 19.5 µM | [12] 27.5 µM | [13] 25.5 µM | [14] 18.5 µM | [15] 31 µM | [16] 12.4 µM | [17] 10 µM | [18] 6.53 µM

Cc1ccc(NC(=O)c2nc(S)nc(N)c2-c2ccccc2C)cc1C
inactive: [1] > 100 µM | [2] > 100 µM | [3] > 100 µM | [4] > 100 µM | [5] > 100 µM | [6] > 100 µM | [7] > 100 µM | [8] > 100 µM | [9] > 100 µM | [10] > 100 µM | [11] > 100 µM | [13] > 100 µM | [14] > 100 µM | [15] > 100 µM | [16] > 100 µM | [17] > 100 µM

COC(=O)C(=O)C(C#N)c1ccc(Cl)c(Cl)c1 (stereo not drawn)
inactive: [1] > 100 µM | [2] > 100 µM | [4] > 100 µM | [5] > 100 µM | [7] > 100 µM | [8] > 100 µM | [9] > 100 µM | [11] > 100 µM | [13] > 100 µM | [14] > 100 µM | [15] > 100 µM | [16] > 100 µM | [17] > 100 µM | [18] > 100 µM

O=C1C(O)=C(CCCc2ccc(Oc3ccccc3)cc2)C(=O)c2ccccc21
inactive: [1] 12.9 µM | [3] 7.76 µM | [4] 10.9 µM | [5] 5.78 µM | [6] 17.7 µM | [7] 30.9 µM | [8] 31.3 µM | [9] 3.94 µM | [10] 7.46 µM | [11] 4.32 µM | [12] 25.7 µM | [13] 6.46 µM | [14] 15.1 µM | [15] 18.4 µM | [16] 10.5 µM | [17] 10.4 µM | [18] 7.94 µM

CC(O)(c1ccc(OCCC[N+](C)(C)C)cc1)C(C)(O)c1ccc(OCCC[N+](C)(C)C)cc1 (stereo not drawn)
inactive: [1] > 100 µM | [2] > 100 µM | [3] > 100 µM | [4] > 100 µM | [5] > 100 µM | [6] > 100 µM | [7] > 100 µM | [8] > 100 µM | [9] > 100 µM | [10] > 100 µM | [11] > 100 µM | [12] > 100 µM | [13] > 100 µM | [14] > 100 µM | [16] > 100 µM | [17] > 100 µM | [18] > 100 µM
